According to publication PMC6271425, “Synthesis and Sar Study of Diarylpentanoid Analogues as New Anti-Inflammatory Agents” (Molecules, 2014):
Read-outs that look alike come from different tables or passages of the source.

What was measured:
Type in all cases: cell-based, murine
[1] = test system: NO production in IFN-γ/LPS-stimulated RAW 264.7 macrophages; assay: NO suppression (Griess nitrite determination) in IFN-γ/LPS-stimulated RAW 264.7 macrophages; conditions: for inhibition at 50 µM: RAW264.7, 50 µM test concentration, read-out: NO Inhibition at 50 µM (%) ± S.E.M; for NO Inhibition at 50 µM (%) ± S.E.M: 50 µM test concentration
Experimental: The synthesized compounds were screened for NO suppression activity in IFN-γ/LPS-stimulated RAW 264.7 macrophages at a 50 µM test concentration. […] The IC50 values of the fifty-seven bioactive compounds were determined and compared to that of the positive control, curcumin. An MTT assay was also carried out to confirm that NO inhibition was not due to cytotoxicity. […] The complete bioassay results of all the compounds are provided as Table S2 in Supplementary Data. RAW 264.7 murine macrophages cells obtained from American Type Culture Collection (ATCC, Rockville, MD, USA) were grown in Dulbecco’s Modified Eagle’s Medium (DMEM) containing 10% fetal bovine serum (FBS) and 1% penicillin/streptomycin in a 95% air and 5% CO2 atmosphere at 37 °C. RAW 264.7 cells at 90%–95% confluency were detached and seeded (50,000 cells/well) into a 96-well culture plate with 50 μL of DMEM and incubated for 24 h. The cells were then stimulated in […] of LPS (Escherichia coli, serotype 0111:B4) and 1 ng/ml of interferon-gamma (IFN-γ) in the presence or absence of test compounds for 17 h. Nitrite concentration was then determined by Griess assay by reacting 50 μL of cell culture supernatant with 50 μL of Griess reagent (1% sulfanilamide and 0.1% N-(1-naphthyl)ethylenediamine dihydrochloride in 2.5% phosphoric acid) at room temperature. The optical density was measured at 550 nm after 5 min of incubation at room temperature with a microplate reader.

[2] = test system: RAW 264.7 cells; assay: Cell cytotoxicity determination (MTT assay); conditions: read-out: Cytotoxicity IC50 (µM) ± S.E.M
Experimental: (§1) The synthesized compounds were screened for NO suppression activity in IFN-γ/LPS-stimulated RAW 264.7 macrophages at a 50 µM test concentration. […] The IC50 values of the fifty-seven bioactive compounds were determined and compared to that of the positive control, curcumin. An MTT assay was also carried out to confirm that NO inhibition was not due to cytotoxicity. […] The complete bioassay results of all the compounds are provided as Table S2 in Supplementary Data.
(§2) RAW 264.7 murine macrophages cells obtained from American Type Culture Collection (ATCC, Rockville, MD, USA) were grown in Dulbecco’s Modified Eagle’s Medium (DMEM) containing 10% fetal bovine serum (FBS) and 1% penicillin/streptomycin in a 95% air and 5% CO2 atmosphere at 37 °C.
(§3) Supernatant in each well was removed followed by addition of 100 µL DMEM. Subsequently, 20 µL of 3-(4,5-dimethylthiazol-2-yl)-2,5-diphenyltetrazolium bromide (MTT, 5 mg/mL) was then added and the plate was incubated in a 95% air and 5% CO2 atmosphere at 37 °C for 4 h. The mixture of culture media and MTT in all wells were removed and the purplish formazan crystals formed were dissolved in dimethyl sulfoxide (DMSO) and further incubated for 15 min at room temperature. The color intensity was then measured at 570 nm at room temperature.

[3] = Cell cytotoxicity determination (MTT assay); conditions: mouse, RAW 264.7 macrophage cells, RAW 264.7 cells, read-out: Cytotoxicity IC50 (µM) ± S.E.M
Experimental: as §1, §2, §3

[4] = Mus musculus, IFN-γ/LPS-stimulated RAW 264.7 cells
[5] = Mus musculus, RAW264.7, IFN-γ/LPS-stimulated RAW 264.7 cells, read-out: NO Inhibition IC50 (µM) ± S.E.M
[6] = Mus musculus, RAW264.7, Table 6, NO suppression IC50 used for QSAR, unit inferred, read-out: IC50
[7] = Mus musculus, RAW264.7, −log IC50 of NO suppression, read-out: pIC50 (converted)
[8] = IFN-γ/LPS-stimulated RAW 264.7 cells
[9] = IFN-γ/LPS-stimulated RAW 264.7 cells, read-out: NO Inhibition IC50 (µM) ± S.E.M

Row | SMILES | inhibition at 50 µM [1, 4] [%] | IC50 [1, 5] [µM] | IC50 [1, 6] [µM] | IC50 [1, 7] [µM] | IC50 [2] [µM] | IC50 [3] [µM] | NO Inhibition at 50 µM (%) ± S.E.M [1, 8] [%] | IC50 [1, 9] [µM]
1 | O=C(/C=C(O)/C=C/c1ccc(Cl)s1)c1ccccc1O [Compound 17] | 63.8 ± 2.6 | 36.4 ± 1.8 | 36.4 ± 1.8 | 36.3 | 67.9 ± 2.9 | 67.8 ± 2.87 |  | 
2 | Cc1ccc(/C=C/C(O)=C/C(=O)c2cc(Cl)ccc2O)o1 [Compound 38] | 73.8 ± 1.14 | 25.5 ± 1.03 | 25.5 ± 1 | 25.7 |  | > 100 | 73.8 ± 1.1 | 
3 | O=C(/C=C(O)/C=C/c1ccccc1)c1cc(Br)ccc1O [Compound 41] | 79.9 ± 8.7 | 20.8 ± 0.54 | 20.8 ± 0.5 | 20.9 |  | > 100 |  | 
4 | O=C(/C=C(O)/C=C/c1cccc(Cl)c1)c1cc(Br)ccc1O [Compound 43] | 81.2 ± 5.16 | 19.8 ± 0.907 | 19.8 ± 0.9 | 20 |  | > 100 | 81.2 ± 5.2 | < 20
5 | COc1ccc(C(=O)/C=C(O)/C=C/c2ccccc2)c(O)c1 [Compound 45] | 87.9 ± 5.1 | 29.5 ± 0.469 | 29.5 ± 0.5 | 29.5 |  | > 100 |  | 
6 | COc1ccc(C(=O)/C=C(O)/C=C/c2ccccc2Cl)c(O)c1 [Compound 46] | 76.2 ± 4.57 | 58.5 ± 2.45 | 58.5 ± 2.4 | 58.9 |  | > 100 | 76.2 ± 4.6 | 
7 | COc1ccc(C(=O)/C=C(O)/C=C/c2ccccc2OC)c(O)c1 [Compound 48] | 66.3 ± 6.75 | 39 ± 1.24 | 39 ± 1.2 | 38.9 | 88.6 ± 2.5 | 88.5 ± 2.54 | 66.3 ± 6.8 | 
8 | COc1cccc(/C=C/C(O)=C/C(=O)c2ccc(OC)cc2O)c1 [Compound 49] | 57.5 ± 6.45 | 45.8 ± 0.804 | 45.8 ± 0.8 | 45.7 |  | > 100 | 57.5 ± 6.5 | 
9 | COc1ccc(C(=O)/C=C(O)/C=C/c2ccc(OC)c(OC)c2)c(O)c1 [Compound 51] | 58.9 ± 2.76 | 21.7 ± 0.5 | 21.7 ± 0.5 | 21.9 |  | > 100 | 58.9 ± 2.8 | 
10 | COc1ccc(C(=O)/C=C(O)/C=C/c2cc(OC)c(OC)c(OC)c2)c(O)c1 [Compound 52] | 96.39 ± 0.37 | 29.3 ± 0.306 | 29.3 ± 0.3 | 29.5 |  | > 100 | 96.4 ± 0.4 | 
11 | COc1ccc(O)c(C(=O)/C=C(O)/C=C/c2ccccc2)c1 [Compound 58] | 92.8 ± 1.8 | 25.9 ± 0.325 | 25.9 ± 0.3 | 25.7 |  | > 100 | 92.8 ± 1.8 | 
12 | COc1ccc(O)c(C(=O)/C=C(O)/C=C/c2cccc(Cl)c2)c1 [Compound 59] | 89.1 ± 3.56 | 35.7 ± 0.789 | 35.7 ± 0.8 | 35.5 |  | > 100 | 89.1 ± 3.6 | 
13 | COc1ccc(O)c(C(=O)/C=C(O)/C=C/c2ccccc2OC)c1 [Compound 61] | 65.8 ± 2.37 | 27.41 ± 0.207 | 27.4 ± 0.2 | 27.5 |  | > 100 | 65.8 ± 2.4 | 
14 | COc1cccc(/C=C/C(O)=C/C(=O)c2cc(OC)ccc2O)c1 [Compound 62] | 92.6 ± 1.18 | 35.06 ± 0.165 | 35.1 ± 0.2 | 34.7 |  | > 100 | 92.6 ± 1.2 | 
15 | COc1ccc(O)c(C(=O)/C=C(O)/C=C/c2ccc(OC)c(OC)c2)c1 [Compound 63] | 92.19 ± 0.77 | 19.8 ± 0.365 | 19.8 ± 0.4 | 20 |  | > 100 | 92.2 ± 0.8 | < 20
16 | COc1ccc(O)c(C(=O)/C=C(O)/C=C/c2cc(OC)c(OC)c(OC)c2)c1 [Compound 64] | 95.2 ± 1.09 | 18.4 ± 0.246 | 18.4 ± 0.2 | 18.2 |  | > 100 | 95.2 ± 1.1 | < 20
17 | COc1ccc(O)c(C(=O)/C=C(O)/C=C/c2ccco2)c1 [Compound 67] | 72.1 ± 3.07 | 71.5 ± 2.5 | 71.5 ± 2.5 | 70.8 |  | > 100 | 72.1 ± 3.1 | 
18 | COc1ccc(/C=C/C(O)=C/C(=O)c2cc(OC)ccc2O)c(OC)c1 [Compound 68] | 79.5 ± 4.71 | 33.4 ± 0.695 | 33.4 ± 0.7 | 33.1 |  | > 100 | 79.5 ± 4.7 | 
19 | COc1ccc(O)c(C(=O)/C=C(O)/C=C/c2cccs2)c1 [Compound 71] | 85 ± 2.66 | 35.6 ± 0.621 | 35.6 ± 0.6 | 35.5 |  | > 100 | 85.0 ± 2.7 | 
20 | O=C(/C=C(O)/C=C/c1ccccc1O)c1ccccc1O [Compound 79] | 95.46 ± 0.59 | 28.9 ± 1.5 | 28.9 ± 1.5 | 28.8 | 56.4 ± 1.2 | 72.6 ± 2.61 | 95.5 ± 0.6 | 
21 | O=C(/C=C(O)/C=C/c1cccc(O)c1)c1ccccc1O [Compound 80] | 97.22 ± 0.69 | 30.8 ± 0.722 | 30.8 ± 0.7 | 30.9 | 67.3 ± 0.6 | 85 ± 1.44 | 97.2 ± 0.7 | 
22 | O=C(/C=C(O)/C=C/c1cccs1)c1ccc(O)cc1O [Compound 95] | 60.4 ± 2.04 | 44.8 ± 1.57 | 44.8 ± 1.6 | 44.7 |  | > 100 | 60.4 ± 2.0 | 
